Tests used:
Assay type in all cases: in vivo
Avena fatura L. (AVEFA) = test: Glasshouse herbicide efficacy of clodinafop propargyl (Topic 240) with adjuvants, fresh weight after 21 days; details: clodinafop propargyl 5 g a.i./ha (Topic 240 in water), adjuvant where named 0.25% w/v, plants in 2-3-leaf stage, untreated 17.48 g
Description: Test formulations are prepared by mixing the commercially available formulation Topic 240, which contains 240 g of clodinafop propargyl per liter of formulation, as stated by the manufacturer (Syngenta), with water. The adjuvants are added to this emulsion in an amount corresponding to a concentration of 0.25% w/v (2.5 g/l). These test solutions are applied in various concentrations (concentration stated in g a.i/ha, where a.i. means active ingredient) to the plant species Avena fatura L. (AVEFA) while they are in the 2-3-leaf stage in a glasshouse as shown in the following table.
After 21 days, the efficacy of the herbicidal formulation is assessed by weighing the plant parts which are still present (fresh weight).

[1] = test system: Lolium perenne L. (LOLPE); test: Glasshouse herbicide efficacy of imazethapyrammonium with adjuvants, fresh weight after 14 days; details: imazethapyrammonium 4.0 g ae/ha, adjuvant where named 0.25% w/v, plants in 2-3-leaf stage, untreated 13.97 g
Description: (§1) Test formulations are prepared by adjusting an aqueous solution of imazethapyrammonium to a concentration of 5 mmol. The adjuvants are added to this solution in an amount corresponding to a concentration of 0.25% w/v (2.5 g/l). These test solutions are applied in various concentrations (concentration stated g ae/ha, where ae means acidic equivalent) to the plant species Solanum Nigrum L. (SOLNI) and Lolium perenne L. (LOLPE) while they are in the 2-3-leaf stage in a glasshouse as shown in the following table.
(§2) After 14 days, the efficacy of the herbicidal formulation is assessed by weighing the plant parts still present (fresh weight).

[2] = test system: Solanum Nigrum L. (SOLNI); test: as above; details: imazethapyrammonium 4.0 g ae/ha, adjuvant where named 0.25% w/v, plants in 2-3-leaf stage, untreated 15.42 g
Description: as §1, §2

Structure (SMILES) | fresh weight [g] AVEFA (Avena fatura L. (AVEFA)) | fresh weight [g] LOLPE [1] | fresh weight [g] SOLNI [2]
C#CCOC(=O)[C@@H](C)Oc1ccc(Oc2ncc(Cl)cc2F)cc1 [Clodinafop propargyl, clodinafop propargyl] | 15.69 g |  | 
CCc1cnc(C2=NC(C)(C(C)C)C(=O)N2)c(C(=O)O)c1.N (stereo not drawn) [Imazethapyrammonium, imazethapyrammonium] |  | 13.40 g | 10.61 g
